# Results published in US20230136878A1, “CARDIOMYOCYTE PURIFICATION METHOD” (ORIZURU THERAPEUTICS, INC., priority 2020, published 2023).
# Legend:
# [1] = tested on: cells positive to any of CD326, CD31, CD49a (non-cardiomyocytes: END, EC, SMC) in cell population induced to differentiate from human iPS cells; assay: Non-cardiomyocyte marker-positive cell rate (non-cardiomyocyte rate) measurement by flow cytometry after compound treatment of embryoid bodies
# Method: After tapping the cell pellets, PBS containing 1% BSA was added by 1 mL, and the mixture was centrifuged at 300×g for 3 min. The supernatant was removed. The cells were stained with APCFire750-labeled anti-CD326 antibody, PE-labeled anti-CD49a antibody, BV605-labeled anti-CD31 antibody, and DAPI in PBS containing 1% BSA. DAPI-positive dead cells were removed, and the separation of cell population and the ratio of each cell population were measured by measuring the signal amount of each fluorescence dye in nuclear cells.
# (§1) On day 8 of differentiation induction, the embryoid bodies were collected in one centrifugal tube, allowed to stand at room temperature for several minutes to cause sedimentation of the embryoid bodies. The supernatant was removed with an aspirator, and a medium was added to replace the medium. The embryoid body suspension was transferred to a 6-well plate, and a 1/100 amount of an evaluation compound (compounds and concentrations of Experiment Nos. 2 to 8 shown in Table 1 below) was added at a concentration of 100 times the final concentration to each well. The plate was stirred to perform cell culture.
# (§2) On day 10 of differentiation induction, the 6-well plate was stood for several minutes while tilting to allow embryoid bodies to form sediments. The supernatant was removed with an aspirator, and a medium was added to replace the medium in each well. […] On day 13 of differentiation induction, the 6-well plate was tilted to allow embryoid bodies to form sediments, and the embryoid bodies were transferred to a 1.5 mL tube with a pipette provided with a chip for wide-diameter 1 mL pipette. Dissociation into single cells was performed according to the staining of non-cardiomyocytes by cell surface marker, and a single cell suspension was used for the cardiomyocyte marker-positive cell rate measurement, and non-cardiomyocyte marker-positive cell rate measurement.
# Using an unfrozen single cell suspension, the staining, measurement, and analysis were performed according to the staining of non-cardiomyocytes by cell surface marker.
# [2] = tested on: sarcomeric α-actinin-positive cells (cardiomyocytes) in cell population induced to differentiate from human iPS cells; assay: Cardiac muscle marker-positive cell rate (cardiomyocyte rate) measurement by flow cytometry after compound treatment of embryoid bodies; settings: for cardiomyocyte rate (Actinin-positive cell rate) as compared with no treatment with compound: Experimental Example 1, FIG. 4, compounds added day 8 and 10, measured day 13, AMG337 2 μM, ASP5878 0.02/0.05/0.12 μM, BGJ398 0.2/1 μM; for cardiomyocyte rate (sarcomeric α-actinin-positive cell rate) as compared with no treatment: Experimental Example 4, FIG. 8, Foretinib 0.5 μM added day 8, 10, 13
# Method: VEGF was not added after Day 8.
# as §1, §2
# The above-mentioned single cell suspension was dispensed to a 1.5 mL tube, centrifuged at 400 g for 3 min, and the supernatant was removed. Cell pellets were resuspended in Cytofix/Cytoperm Fixation/Permeabilization Solution (BD), and fixed by allowing to stand at room temperature for 15 min. To each tube was added 1×Perm/Wash Buffer (1 mL), and the mixture was centrifuged at 1500 g for 3 min, and the supernatant was removed to wash the cells. After tapping the cell pellets, 1×Perm/Wash Buffer (1 mL) was added, and a similar operation was performed to wash the cells. After tapping the cell pellets, the cell pellets were stained with fluorescence dye Alexa647 using an anti-sarcomeric α-actinin antibody in 1×Perm/Wash Buffer containing 1% BSA, and DNA staining was further performed using DAPI (4′,6-Diamidino-2-phenylindole Dihydrochloride). The Sarcomeric α-actinin-positive cell rate was analyzed by measuring the fluorescence signal amount of Alexa647 in the cell population excluding dead cells (cells with DNA amount of Sub-G1) by using a flow cytometer.
# [3] = tested on: cell population induced to differentiate into cardiomyocytes from human iPS cells; assay: Recovered cell count measurement (cell counter NC-200) after compound treatment of embryoid bodies; type: cell-based
# Method: The above-mentioned single cell suspension was 5-fold diluted by adding to IMDM medium prepared in a 1.5 mL tube, and mixed by inversion, and the cell count was measured with a cell counter NC-200 (Chemometec).
# [4] = Experimental Example 1, FIG. 5, iPS line from PBMC LP_167, compounds added day 8 and 10, measured day 13, compound A 0.5 μM, AMG337 2 μM, ASP5878 0.02/0.05/0.12 μM, BGJ398 0.2/1 μM
# [5] = iPS line from PBMC LP_167, compound A 0.5 μM
# [6] = Experimental Example 3, FIG. 7, iPS line from PBMC LP_140, added day 8, 10, 13, measured day 17, compound A 0.5 μM, Foretinib 2 μM, ZM323881 2 μM, Crenolanib 1 μM, Crizotinib 2 μM
# [7] = Experimental Example 7, FIG. 16, clinical iPS cell line produced by CiRA, added day 8, 10, 13, measured day 17, compound A 0.5 μM, Foretinib 2/0.5 μM, ZM323881 2 μM, CP-673451 1/0.3 μM, Crizotinib 2/0.5 μM
# [8] = Experimental Example 9, FIG. 20, n=4, clinical iPS cell line produced by CiRA, Foretinib 0.5 μM, Crizotinib 2 μM added day 8, 10, 13, measured day 17
# [9] = Experimental Example 7, FIG. 15, clinical iPS cell line produced by CiRA, added day 8, 10, 13, measured day 17, compound A 0.5 μM, Foretinib 2/0.5 μM, ZM323881 2 μM, CP-673451 1/0.3 μM, Crizotinib 2/0.5 μM
# [10] = Experimental Example 9, FIG. 19, clinical iPS cell line produced by CiRA, Foretinib 0.5 μM, Crizotinib 2 μM added day 8, 10, 13, measured day 17
# [11] = Experimental Example 5, FIG. 10, n=4, iPS line from PBMC LP_140, Crenolanib 1 μM, compound B 2 μM added day 8, 10, 13, ASP5878 0.02 μM added day 8 and 10, measured day 16
# [12] = iPS line from PBMC LP_140, compound A 0.5 μM, measured day 17
SMILES,"non-cardiomyocyte rate (rate of cells positive to any of CD326, CD31, CD49a) as compared with no treatment with compound [1, 4]","cardiomyocyte rate (Actinin-positive cell rate) as compared with no treatment with compound [2, 5]","non-cardiomyocyte rate (rate of cells positive to any of CD326, CD31, CD49a) as compared with no treatment with compound [1, 6]","non-cardiomyocyte rate as compared with no treatment with compound [1, 7]","cardiomyocyte rate (sarcomeric α-actinin-positive cell rate) as compared with no treatment with compound [2, 9]",further results
CCN1CCN(c2ccc(Nc3cc(N(C)C(=O)Nc4c(Cl)c(OC)cc(OC)c4Cl)ncn3)cc2)CC1 [BGJ398],decreased,increased,,,,
C[C@@H](Oc1cc(-c2cnn(C3CCNCC3)c2)cnc1N)c1c(Cl)ccc(F)c1Cl [Crizotinib],,,decreased,decreased,increased,"non-cardiomyocyte rate as compared with no treatment with compound [1, 8]: decreased; cardiomyocyte rate (sarcomeric α-actinin-positive cell rate) as compared with no treatment with compound [2, 10]: increased; number of cells recovered as compared with no treatment with compound ([3]; Experimental Example 9, FIG. 21, n=4, clinical iPS cell line produced by CiRA, Crizotinib 2 μM added day 8, 10, 13, day 17): About 80%"
"COc1cc2nccc(Oc3ccc(NC(=O)C4(C(=O)Nc5ccc(F)cc5)CC4)cc3F)c2cc1OC [compound B, N-{4-[(6,7-dimethoxyquinolin-4-yl)oxy]-3-fluorophenyl}-N′-(4-fluorophenyl)cyclopropane-1,1-dicarboxamide]",,,,,,"cardiomyocyte rate (sarcomeric α-actinin-positive cell rate) as compared with no treatment with compound [2, 11]: increased"
Cc1cc(F)c(Nc2ncnc3cc(OCc4ccccc4)ccc23)cc1O [ZM323881],,,decreased,decreased,increased,
CC1(COc2ccc3c(c2)ncn3-c2ccc3cccc(N4CCC(N)CC4)c3n2)COC1 [Crenolanib],,,decreased,,,"non-cardiomyocyte rate ([1]; Experimental Example 8, FIG. 18, clinical iPS cell line produced by CiRA, Crenolanib 0.2 or 1 μM, start of addition day 8, 10 or 13 (Table 8), measured day 23): decreased; cardiomyocyte rate (sarcomeric α-actinin-positive cell rate) as compared with no treatment with compound [2, 11]: increased; cardiomyocyte rate (sarcomeric α-actinin-positive cell rate) ([2]; Experimental Example 8, FIG. 17, clinical iPS cell line produced by CiRA, Crenolanib 0.2 or 1 μM, start of addition day 8, 10 or 13 (Table 8), measured day 23): increased"
COCCOc1cnc2ccn([C@H](C)c3nnc4c(F)cc(-c5cnn(C)c5)cn34)c(=O)c2c1 [AMG337],decreased,increased,,,,
COc1cc2c(Oc3ccc(NC(=O)C4(C(=O)Nc5ccc(F)cc5)CC4)cc3F)ccnc2cc1OCCCN1CCOCC1 [Foretinib],,,decreased,decreased,increased,"non-cardiomyocyte rate as compared with no treatment with compound [1, 8]: decreased; cardiomyocyte rate (sarcomeric α-actinin-positive cell rate) as compared with no treatment with compound ([2]; Experimental Example 2, FIG. 6, n=4, iPS line from PBMC LP_167, Foretinib 2 μM added day 8, 10, 13, ASP5878 0.02 μM added day 8 and 10, measured day 16): increased; cardiomyocyte rate (sarcomeric α-actinin-positive cell rate) as compared with no treatment [2, 12]: increased; cardiomyocyte rate (sarcomeric α-actinin-positive cell rate) as compared with no treatment with compound [2, 10]: increased; number of cells recovered as compared with no treatment ([3]; Experimental Example 4, FIG. 9, iPS line from PBMC LP_140, Foretinib 0.5 μM added day 8, 10, 13, day 17): about 70%; number of cells recovered as compared with no treatment with compound (in words) ([3]; Experimental Example 9, FIG. 21, n=4, clinical iPS cell line produced by CiRA, Foretinib 0.5 μM added day 8, 10, 13, day 17): almost the same number of cells was recovered"
"Cc1cc(C(=O)Nc2cc(Oc3ccc4nc(NC(=O)C5CC5)cn4n3)ccc2C)n(C)n1 [compound A, N-[5-({2-[(cyclopropanecarbonyl)amino]imidazo[1,2-b]pyridazin-6-yl}oxy)-2-methylphenyl]-1,3-dimethyl-1H-pyrazole-5-carboxamide]",decreased,increased,decreased,decreased,increased,"non-cardiomyocyte rate as compared with no treatment with compound ([1]; Experimental Example 6, FIG. 13, n=4, clinical iPS cell line produced by CiRA, compound A 0.2 μM added day 14, 17, 21): decreased; cardiomyocyte rate (sarcomeric α-actinin-positive cell rate) as compared with no treatment [2, 12]: increased; cardiomyocyte rate as compared with no treatment with compound ([2]; Experimental Example 6, FIG. 12, n=4, clinical iPS cell line produced by CiRA, compound A 0.2 μM added day 14, 17, 21): increased; number of cells recovered as compared with no treatment (in words) ([3]; Experimental Example 4, FIG. 9, iPS line from PBMC LP_140, compound A 0.5 μM added day 8, 10, 13, day 17): almost the same number of cells was recovered; number of recovered cells depending on the presence or absence of the compound treatment ([3]; Experimental Example 6, FIG. 14, n=4, clinical iPS cell line produced by CiRA, compound A 0.2 μM added day 14, 17, 21): did not change much"
COCCOc1ccc2c(c1)ncn2-c1ccc2cccc(N3CCC(N)CC3)c2n1 [CP-673451],,,,decreased,increased,
